Literature values, collected in US20080161232A1, “C5a Receptor Antagonist” (JERINI AG, priority 2005, published 2008).

System: human PMNs
Conditions: cellular myeloperoxidase release assay with human PMNs; read-out: IC50 (antagonistic activity), WO 99/00406; cited from earlier work

Me-Phe-Lys-Pro-cha-Trp-arg
IC50: 0.085 µM
